Data reported in US20230065740A1, “CYCLIN-DEPENDENT KINASE INHIBITORS” (SPV THERAPEUTICS INC., priority 2018, published 2023).

Tests used:
CDK6-CYCLIND3 = molecular target: T1, CDK6-CYCLIND3 (Homo sapiens, UniProt Q00534); assay: Microfluidic LabChip kinase inhibition assay, CDK6-CyclinD3; format: biochemical; conditions: Table 2; 300 μM ATP, 2 nM enzyme; read-out: CDK6 IC50
T1 construct: purchased Carna

CDK4-CYCLIND1 = CDK4-CYCLIND1 (Homo sapiens, UniProt P11802); assay: Microfluidic LabChip kinase inhibition assay, CDK4-CyclinD1; conditions: CDK4 IC50 (μM), Table 2; 200 μM ATP, 1 nM enzyme
Chain of CDK4-CYCLIND1 (P11802 whole entry): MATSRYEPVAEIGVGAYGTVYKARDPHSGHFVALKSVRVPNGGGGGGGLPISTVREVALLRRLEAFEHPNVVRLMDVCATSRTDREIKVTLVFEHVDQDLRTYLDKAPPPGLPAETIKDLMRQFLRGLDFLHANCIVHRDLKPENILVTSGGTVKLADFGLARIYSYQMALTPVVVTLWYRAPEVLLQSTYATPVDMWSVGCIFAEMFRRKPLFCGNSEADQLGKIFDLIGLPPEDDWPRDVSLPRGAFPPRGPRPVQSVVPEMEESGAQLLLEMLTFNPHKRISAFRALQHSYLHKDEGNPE
Chain of CDK4-CYCLIND1 (P24385 whole entry partner): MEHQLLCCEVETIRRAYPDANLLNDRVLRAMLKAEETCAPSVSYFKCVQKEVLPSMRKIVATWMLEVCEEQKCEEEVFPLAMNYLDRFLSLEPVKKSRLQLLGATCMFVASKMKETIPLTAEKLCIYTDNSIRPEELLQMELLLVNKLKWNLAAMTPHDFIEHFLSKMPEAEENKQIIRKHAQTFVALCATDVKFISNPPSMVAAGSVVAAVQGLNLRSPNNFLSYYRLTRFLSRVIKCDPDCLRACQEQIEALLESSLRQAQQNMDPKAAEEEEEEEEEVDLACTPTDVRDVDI
Description: Inhibition assays were performed using microfluidic LabChip 300 Drug Discovery System from Caliper Life Sciences. […] The assay has a total volume of 10 μL consisting of 5 μL of enzyme and buffer and 5 μL of substrate and buffer. The test compounds were diluted in 100% dimethylsulfoxide (DMSO) using 3-fold dilution steps. […] Compounds were tested in a single well for each dilution and the final concentration of DMSO was maintained at 1%.
The assay buffer contained 100 mM HEPES, pH 7.5, 0.01% Triton X-100, 0.1% bovine serum albumin (BSA), 5 mM MgCl2; 1 mM dithiothreitol (DTT), 10 μM sodium orthovanadate, and 10 μM β-glycerophosphate.
The assay was conducted by adding 5 μL of enzyme, adenosine triphosphate (ATP) and buffer to an assay plate. A 100 nL aliquot of the diluted compounds were added to the plate. The assay was initiated by the addition of 5 μL of phosphoenolpyruvate substrate (PEP) in buffer. […] The reaction was terminated by the addition of EDTA. The plates were analyzed using a Caliper LabChip 3000.

T1 sequence (Q00534 whole entry): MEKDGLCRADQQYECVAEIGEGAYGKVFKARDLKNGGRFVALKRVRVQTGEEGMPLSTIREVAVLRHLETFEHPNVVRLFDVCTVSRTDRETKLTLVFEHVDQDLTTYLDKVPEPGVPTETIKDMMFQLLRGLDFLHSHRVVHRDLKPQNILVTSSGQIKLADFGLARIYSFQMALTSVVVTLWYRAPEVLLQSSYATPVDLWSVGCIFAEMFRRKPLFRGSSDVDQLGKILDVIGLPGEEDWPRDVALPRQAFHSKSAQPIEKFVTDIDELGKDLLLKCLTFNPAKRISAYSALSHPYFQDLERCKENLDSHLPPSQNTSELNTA
T1 sequence (P30281 whole entry partner): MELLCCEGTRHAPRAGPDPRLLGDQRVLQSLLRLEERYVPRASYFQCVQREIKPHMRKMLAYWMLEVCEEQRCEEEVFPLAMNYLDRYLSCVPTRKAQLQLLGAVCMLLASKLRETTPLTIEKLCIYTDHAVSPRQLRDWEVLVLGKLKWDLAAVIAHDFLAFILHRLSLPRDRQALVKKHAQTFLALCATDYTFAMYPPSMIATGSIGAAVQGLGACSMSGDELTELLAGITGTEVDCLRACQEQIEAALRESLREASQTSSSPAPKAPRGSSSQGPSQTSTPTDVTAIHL

Row | SMILES | IC50 (CDK6-CYCLIND3) [µM] | IC50 (CDK4-CYCLIND1) [µM]
1 | CN(C)CCOc1ccc(Nc2ncc3c(n2)N(C2CCCC2)C2(CCN(C)C2=O)C3)nc1 (centres unmarked) [Compound C4, 7′-cyclopentyl-2′-((5-(2-(dimethylamino)ethoxy)pyridin-2-yl)amino)-1-methyl-5′,7′-dihydrospiro[pyrrolidine-3,6′-pyrrolo[2,3-d]pyrimidin]-2-one] | > 30 | > 30
2 | CN1CCC2(Cc3cnc(Nc4ccc(OCCN5CCCC5)cn4)nc3N2C2CCCC2)C1=O (centres unmarked) [Compound C5, 7′-cyclopentyl-1-methyl-2′-((5-(2-(pyrrolidin-1-yl)ethoxy)pyridin-2-yl)amino)-5′,7′-dihydrospiro[pyrrolidine-3,6′-pyrrolo[2,3-d]pyrimidin]-2-one] | > 30 | > 30
3 | CN1CCC2(Cc3cnc(Nc4ccc(OCCN5CCCCC5)cn4)nc3N2C2CCCC2)C1=O (centres unmarked) [Compound C6, 7′-cyclopentyl 1-methyl-2′-((5-(2-(piperidin-1-yl)ethoxy)pyridin-2-yl)amino)-5′,7′-dihydrospiro[pyrrolidine-3,6′-pyrrolo[2,3-d]pyrimidin]-2-one] | > 30 | > 30
4 | CN1CCN(c2ccc(Nc3ncc4c(n3)N(C3CCCC3)C3(CCCN(C)C3=O)C4)cc2)CC1 (centres unmarked) [Compound C7, 7′-cyclopentyl-1-methyl-2′-((4-(4-methylpiperazin-1-yl)phenyl)amino)-5′,7′-dihydrospiro[piperidine-3,6′-pyrrolo[2,3-d]pyrimidin]-2-one] | > 30 | > 30
5 | CN1CCCC2(Cc3cnc(Nc4ccc(N5CCNCC5)cc4)nc3N2C2CCCC2)C1=O (centres unmarked) [Compound C8, 7′-cyclopentyl-1-methyl-2′-((4-(piperazin-1-yl)phenyl)amino)-5′,7′-dihydrospiro[piperidine-3,6′-pyrrolo[2,3-d]pyrimidin]-2-one] | > 30 | > 30
6 | CC(C)N1CCN(c2ccc(Nc3ncc4c(n3)N(C3CCCC3)C3(CCCN(C)C3=O)C4)nc2)CC1 (centres unmarked) [Compound C9, 7′-cyclopentyl-2′-((5-(4-isopropylpiperazin-1-yl)pyridin-2-yl)amino)-1-methyl-5′,7′-dihydrospiro[piperidine-3,6′-pyrrolo[2,3-d]pyrimidin]-2-one] | > 30 | > 30
7 | CN1CCCC2(Cc3cnc(Nc4ccc(OCCN5CCCC5)cn4)nc3N2C2CCCC2)C1=O (centres unmarked) [Compound C10, 7′-cyclopentyl-1-methyl-2′-((5-(2-(pyrrolidin-1-yl)ethoxy)pyridin-2-yl)amino)-5′,7′-dihydrospiro[piperidine-3,6′-pyrrolo[2,3-d]pyrimidin]-2-one] | > 30 | > 30
8 | CN1CCCC2(Cc3cnc(Nc4ccc(OCCN5CCCCC5)cn4)nc3N2C2CCCC2)C1=O (centres unmarked) [Compound C11, 7′-cyclopentyl-1-methyl-2′-((5-(2-(piperidin-1-yl)ethoxy)pyridin-2-yl)amino)-5′,7′-dihydrospiro[piperidine-3,6′-pyrrolo[2,3-d]pyrimidin]-2-one] | > 30 | > 30
9 | COc1ccc(CN2CCC3(Cc4cnc(Nc5ccc(N6CCN(C)CC6)cc5)nc4N3C3CCCC3)C2=O)cc1 (centres unmarked) [Compound C12, 7′-cyclopentyl-1-(4-methoxybenzyl)-2′-((4-(4-methylpiperazin-1-yl)phenyl)amino)-5′,7′-dihydrospiro[pyrrolidine-3,6′-pyrrolo[2,3-d]pyrimidin]-2-one] | > 30 | 1.96

Further lines, results first:

Row | IC50 (CDK6-CYCLIND3) [µM] | IC50 (CDK4-CYCLIND1) [µM] | SMILES
10 | > 30 | > 30 | CN1CCN(c2cnc(Nc3ncc4c(n3)N(C3CCCC3)C3(CCN(C)C3=O)C4)cc2C(F)(F)F)CC1 (centres unmarked) [Compound C13, 7′-cyclopentyl-1-methyl-2′-((5-(4-methylpiperazin-1-yl)-4-(trifluoromethyl)pyridin-2-yl)amino)-5′,7′-dihydrospiro[pyrrolidine-3,6′-pyrrolo[2,3-d]pyrimidin]-2-one]
11 | > 30 | > 30 | CN1CCCC2(Cc3cnc(Nc4cc(C(F)(F)F)c(N5CCNCC5)cn4)nc3N2C2CCCC2)C1=O (centres unmarked) [Compound C14, 7′-cyclopentyl-1-methyl-2′-((5-(piperazin-1-yl)-4-(trifluoromethyl)pyridin-2-yl)amino)-5′,7′-dihydrospiro[piperidine-3,6′-pyrrolo[2,3-d]pyrimidin]-2-one]
12 | > 30 | > 30 | CN1CCC2(Cc3cnc(Nc4cc(C(F)(F)F)c(N5CCNCC5)cn4)nc3N2C2CCCC2)C1=O (centres unmarked) [Compound C15, 7′-cyclopentyl-1-methyl-2′-((5-(piperazin-1-yl)-4-(trifluoromethyl)pyridin-2-yl)amino)-5′,7′-dihydrospiro[pyrrolidine-3,6′-pyrrolo[2,3-d]pyrimidin]-2-one]
13 | > 30 | 13.1 | COc1ccc(CN2CCC3(Cc4cnc(Nc5cc(C(F)(F)F)c(N6CCNCC6)cn5)nc4N3C3CCCC3)C2=O)cc1 (centres unmarked) [Compound C16, 7′-cyclopentyl-1-(4-methoxybenzyl)-2′-((5-(piperazin-1-yl)-4-(trifluoromethyl)pyridin-2-yl)amino)-5′,7′-dihydrospiro[pyrrolidine-3,6′-pyrrolo[2,3-d]pyrimidin]-2-one]
14 | > 30 | 18.8 | O=C1NCCC12Cc1cnc(Nc3cc(C(F)(F)F)c(N4CCNCC4)cn3)nc1N2C1CCCC1 (centres unmarked) [Compound C17, 7′-cyclopentyl-2′-((5-(piperazin-1-yl)-4-(trifluoromethyl)pyridin-2-yl)amino)-5′,7′-dihydrospiro[pyrrolidine-3,6′-pyrrolo[2,3-d]pyrimidin]-2-one]
15 | > 30 | > 30 | CN1CCN(c2cnc(Nc3ncc4c(n3)N(C3CCCC3)C3(CCNC3=O)C4)cc2C(F)(F)F)CC1 (centres unmarked) [Compound C18, 7′-cyclopentyl-2′-((5-(4-methylpiperazin-1-yl)-4-(trifluoromethyl)pyridin-2-yl)amino)-5′,7′-dihydrospiro[pyrrolidine-3,6′-pyrrolo[2,3-d]pyrimidin]-2-one]
16 | > 30 | > 30 | CN1CCC2(Cc3cnc(Nc4ccc(N5CCNCC5)cn4)nc3N2C2CCCC2)C1=O (centres unmarked) [Compound C19, 7′-cyclopentyl-1-methyl-2′-((5-(piperazin-1-yl)pyridin-2-yl)amino)-5′,7′-dihydrospiro[pyrrolidine-3,6′-pyrrolo[2,3-d]pyrimidin]-2-one]
17 | > 30 | > 30 | CN1CCN(c2ccc(Nc3ncc4c(n3)N(C3CCCC3)C3(CCN(C)C3=O)C4)nc2)CC1 (centres unmarked) [Compound C20, 7′-cyclopentyl-1-methyl-2′-((5-(4-methylpiperazin-1-yl)pyridin-2-yl)amino)-5′,7′-dihydrospiro[pyrrolidine-3,6′-pyrrolo[2,3-d]pyrimidin]-2-one]
18 | > 30 | > 30 | O=C1N(Cc2ccccc2)CCC12Cc1cnc(Nc3ccc(N4CCNCC4)cn3)nc1N2C1CCCC1 (centres unmarked) [Compound C21]
19 | > 30 | 16.5 | CN1CCN(c2ccc(Nc3ncc4c(n3)N(C3CCCC3)C3(CCN(Cc5ccccc5)C3=O)C4)nc2)CC1 (centres unmarked) [Compound C22, 1-benzyl-7′-cyclopentyl-2′-((5-(4-methylpiperazin-1-yl)pyridin-2-yl)amino)-5′,7′-dihydrospiro[pyrrolidine-3,6′-pyrrolo[2,3-d]pyrimidin]-2-one]
